# Reference: paper PMC10076671, “Spider venom-derived peptide JZTX-14 prevents migration and invasion of breast cancer cells via inhibition of sodium channels” (Frontiers in Pharmacology, 2023)
# Entries after “also recorded” stand apart in the source; their conditions may differ. Where a SMILES comes first, the peptide text is derived from it. Bridges are numbered along the chain shown (N, C = ends).
# Tests used:
# MDA-MB-231 cells [1] = assay: Hoechst 33342/PI double staining assay; format: cell-based, human; conditions: 0, 6, 12.5 μM; 48 h
# Experimental: The cells were seeded in a 6-well plate, and after their adherence to the plate, the medium was changed with a complete medium containing different concentrations of inhibitors. After 48 h of treatment, the cells were washed three times with 4°C cold PBS, and incubated with 5 μl/ml Hoechst 33,342 for 15 min. The cells were washed again three times using PBS and incubated with 5 μl/ml PI for 15 min.
# MDA-MB-231 cells [2] = assay: RNA sequencing, differentially expressed genes; format: cell-based, human; conditions: 12.5 μM, 48 h
# Experimental: Total RNA was extracted from untreated (C) MDA-MB-231 cells and MDA-MB-231 cells treated with a concentration of 12.5 μM JZTX-14 (GL) for 48 h using TRIzol reagent. RNA concentration was first quantified using a NanoDrop 2000 spectrophotometer and further accurately quantified using an Agilent 2100/4200 for RNA sample mass and concentration. The extracted total RNA was stored at −70°C. The sample mRNA was enriched with magnetic beads with Oligo (dT), and then the mRNA was broken into short fragments which subsequently used as a template to synthesize the first strand of cDNA with six-base random primers. The second cDNA strand was synthesized by adding buffer, dNTPs, and enzymes, and the acquired double-stranded cDNA was purified, end-repaired, A-tailed, and connected to sequencing junctions. Next, the fragment size was selected and the cDNA library was enriched by PCR amplification, followed by accurate qualification of the effective concentration of the library using qPCR. […]
# The reads after rRNA removal were compared with the reference genome using Hisat2 software. Gene level quantification was performed separately for each sample using FeatureCount and combined to obtain the gene expression matrix of all samples. Correlation coefficients between samples were calculated based on the expression values (FPKM) of genes in each sample. […]
structure (smiles),measurement,setting,value
"CC[C@H](C)[C@H](NC(=O)[C@@H]1CSSC[C@@H]2NC(=O)[C@@H]3CCCN3C(=O)[C@@H]3CCCN3C(=O)[C@H](CCC(N)=O)NC(=O)CNC(=O)[C@@H]3CCCN3C(=O)[C@H](Cc3c[nH]cn3)NC(=O)[C@@H]3CSSC[C@H](NC(=O)[C@H](C)NC(=O)[C@H](CC(C)C)NC(=O)CNC(=O)[C@H](CO)NC(=O)[C@H](CSSC[C@H](NC(=O)CN)C(=O)N[C@@H](CCC(N)=O)C(=O)N[C@@H](CCCCN)C(=O)N[C@@H](Cc4ccccc4)C(=O)N[C@@H](Cc4ccccc4)C(=O)N[C@@H](Cc4c[nH]c5ccccc45)C(=O)N[C@@H]([C@@H](C)O)C(=O)N3)NC2=O)C(=O)N[C@@H]([C@@H](C)O)C(=O)N[C@@H](Cc2c[nH]c3ccccc23)C(=O)N2CCC[C@H]2C(=O)N[C@@H]([C@@H](C)O)C(=O)N[C@@H](CCC(=O)O)C(=O)N[C@@H]([C@@H](C)CC)C(=O)N1)C(=O)N[C@@H](CC(C)C)C(N)=O [JZTX-14] (H-GCQKFFWTCHPGQPPCCSGLACTWPTEICIL-NH2; disulfide 2-17, 9-22, 16-29)",Apoptosis and necrosis (Hoechst 33342/PI staining),MDA-MB-231 cells [1],no apoptosis and necrosis; also recorded: no significant effect on the necrosis
same,Downregulated genes associated with migration and invasion,MDA-MB-231 cells [2],"ANGPTL4, S100A4, GJB3, FBXO2, PLAC1, and HMGN5"
same,Upregulated genes associated with migration and invasion,MDA-MB-231 cells [2],IL-24-F and SERPINB2
